Results: article PMC7613515, “Reading and erasing of the phosphonium analogue of trimethyllysine by epigenetic proteins” (Communications Chemistry, 2022)

Tests used:
KDM4DJmjC (M1–L358) = experiment: MALDI-TOF demethylation assay, KDM4DJmjC; format: biochemical, human; details: KDM4DJmjC 2.4 µM, peptide 5.0 µM, 1 hr, duplicates
Method: A Bruker Daltonics MALDI-TOF/TOF AutoflexSpeed machine and Bruker MTP 384 target plates (polished steel BC, Part: 8280781) were used. The machine was controlled using Flex control (v. 3.4 build 135.10) and Compass for flex series (v. 1.4) software. Measurements were in the positive ion mode with the reflectron mode enabled. Incubations employed ProxiPlate-384™ (Perkin Elmer) plates into which was pipetted a solution of [H3_1-15K9me3 (10.0 µM), (+)-sodium L-ascorbate (1.0 mM), (NH4)2Fe(II)(SO4)2 (100 µM), di-sodium 2-oxoglutarate (200 µM) in buffer (HEPES (50 mM)) in MilliQ (pH 7.5)] (5.0 µL) using ClipTip™ (Thermo Scientific™) pipette tips and E1-ClipTip™ (Thermo Scientific™). The enzyme solution [KDM4EJmjC (1.0 µM) in HEPES (50 mM)] (5.0 µL) was added to initiate reaction at 37 °C. Reactions were quenched with formic acid in water (2%, 5.0 µL).

[1] = biological target: T1, KDM5APHD3 (JARID1A-PHD3, residues M1489–V1641) (Homo sapiens, UniProt P29375); experiment: ITC, association of histone H3 peptides with KDM5APHD3; format: binding; details: 25 °C, H3 1-10 peptide, Tris (50 mM), NaCl (20 mM), pH 7.5, from 3 to 5 experiments, ± SD
T1 construct: KDM5APHD3 (JARID1A-PHD3, residues M1489–V1641); made in house; host or cells: E. coli
T1 sequence (P29375 1489-1641): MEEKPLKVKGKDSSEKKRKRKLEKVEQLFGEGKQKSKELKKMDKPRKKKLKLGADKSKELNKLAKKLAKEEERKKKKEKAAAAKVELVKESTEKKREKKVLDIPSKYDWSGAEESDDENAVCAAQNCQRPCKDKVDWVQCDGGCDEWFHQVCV
Excerpt: (§1) We investigated the thermodynamics of association of the H3KP4me3 peptide with five representative human reader domains containing either a PHD zinc finger or TTD, i.e. KDM5APHD3 (JARID1A-PHD3, residues M1489–V1641)[10], TAF3PHD (R857–K924)[22], BPTFPHD (L2583–N2751)[23], SGF29TTD (R115–K293)[24] and KDM4ATTD (JMJD2A, Q897-P1011)[25], selected on the basis of their preference for binding Ν^ε-trimethyllysine over other (non)methylation marks (Kme0 < Kme1 < Kme2 < Kme3), and their domain and aromatic cage diversity. The recombinant readers were produced in E. coli following reported procedures. Isothermal titration calorimetric (ITC) analyses were used to determine the dissociation constant (Kd), the Gibbs free energy of binding (ΔG°), the enthalpy of binding (ΔH°), and the entropy of binding (ΔS°). […] (Table 1, Fig. 2, Supplementary Fig. 1).
The following purified reader domains: TAF3PHD (R857-K924), KDM5APHD3 (JARID1A, M1489-V1641), BPTFPHD (L2583-N2751), KDM4ATTD (JMJD2A, Q897-P1011) and SGF29TTD (R115-K293) were prepared as reported[10],[22]–[26]. The histone lysine demethylase were produced and purified to high purity via reported procedures KDM3A (JMJD1A, T515-S1317)[41], KDM4AJmjC[39] (JMJD2A, M1-L359), KDM4EJmjC (JMJD2E, M1–Q337)[34] and KDM7B[40] (PHF8, M37-N483 [NP_001171]). KDM5DJmjC was produced using an N-terminal hexa-His tagged KDM4D (KDM4DM1-L358) DNA construct, transformed into BL21(DE3) competent cells for recombinant protein production. Colonies were used to inoculate of LB media (50 mL) containing kanamycin (50 µg·mL^−1) and chloramphenicol (34 µg·mL^−1), which was placed in a 37 °C shaker overnight. The starter culture (10 mL) was used to inoculate TB media (6 × 1 L) containing kanamycin (50 µg·mL^−1) in 2 L baffled shaker flasks. After reaching an of OD600 of ~0.8, the temperature was reduced to 18 °C; at OD600 ~0.9 the cells were induced by the IPTG (0.5 mM) addition. After shaking overnight, the culture was centrifuged (5000 rpm, 10 mins), the media was decanted, and the cell pellet was suspended in Lysis Buffer [HEPES (50 mM), NaCl (500 mM), imidazole (20 mM), glycerol (5%) and TCEP (0.5 mM) in water (pH 7.4)]. The suspension was lysed by passaging through a high-pressure cell breaker (Avestin – EmulsiFlex-C5) for three rounds. The lysate was cleared by centrifugation (60 minutes, 36,000 × g, 4 °C), then loaded onto a Ni NTA gravity column. […]
ITC studies followed a reported procedure. […] Histone peptide titrations were performed with the same reader batches. Solutions of the reader in buffer (25–40 µM) and of the histone H3 peptide (350–600 µM) in buffer were prepared. […] Heats of dilution for histone peptides determined in control experiments were subtracted from the titration binding data. […]

[2] = biological target: T2, KDM4ATTD (JMJD2A, Q897-P1011) (Homo sapiens, UniProt O75164); experiment: ITC, association of histone H3 peptides with KDM4ATTD; format: binding
T2 construct: KDM4ATTD (JMJD2A, Q897-P1011); made in house; host or cells: E. coli
T2 sequence (O75164 897-1011): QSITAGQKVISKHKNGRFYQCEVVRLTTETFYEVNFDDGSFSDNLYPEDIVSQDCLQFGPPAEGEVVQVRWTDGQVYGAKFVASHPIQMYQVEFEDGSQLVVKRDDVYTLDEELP
Excerpt: as §1
The following purified reader domains: TAF3PHD (R857-K924), KDM5APHD3 (JARID1A, M1489-V1641), BPTFPHD (L2583-N2751), KDM4ATTD (JMJD2A, Q897-P1011) and SGF29TTD (R115-K293) were prepared as reported[10],[22]–[26]. The histone lysine demethylase were produced and purified to high purity via reported procedures KDM3A (JMJD1A, T515-S1317)[41], KDM4AJmjC[39] (JMJD2A, M1-L359), KDM4EJmjC (JMJD2E, M1–Q337)[34] and KDM7B[40] (PHF8, M37-N483 [NP_001171]). KDM5DJmjC was produced using an N-terminal hexa-His tagged KDM4D (KDM4DM1-L358) DNA construct, transformed into BL21(DE3) competent cells for recombinant protein production. Colonies were used to inoculate of LB media (50 mL) containing kanamycin (50 µg·mL^−1) and chloramphenicol (34 µg·mL^−1), which was placed in a 37 °C shaker overnight. The starter culture (10 mL) was used to inoculate TB media (6 × 1 L) containing kanamycin (50 µg·mL^−1) in 2 L baffled shaker flasks. After reaching an of OD600 of ~0.8, the temperature was reduced to 18 °C; at OD600 ~0.9 the cells were induced by the IPTG (0.5 mM) addition. After shaking overnight, the culture was centrifuged (5000 rpm, 10 mins), the media was decanted, and the cell pellet was suspended in Lysis Buffer [HEPES (50 mM), NaCl (500 mM), imidazole (20 mM), glycerol (5%) and TCEP (0.5 mM) in water (pH 7.4)]. The suspension was lysed by passaging through a high-pressure cell breaker (Avestin – EmulsiFlex-C5) for three rounds. The lysate was cleared by centrifugation (60 minutes, 36,000 × g, 4 °C), then loaded onto a Ni NTA gravity column. After extensive rinsing of the Ni-NTA gravity column with lysis buffer, the His-tagged protein was eluted in lysis buffer containing 300 mM imidazole. The eluted protein was concentrated and subjected to gel filtration chromatography using an AKTA Xpress system, an S200 16/600 gel filtration column, and GF buffer [HEPES (50 mM), NaCl (150 mM), glycerol (5%) and TCEP (0.5 mM) in water (pH 7.4)]. The protein identity was verified by LC-MS (ESI-TOF) observing a mass of 43759.7 Da, in accord with the predicted mass of 43751.6 Da.
ITC studies followed a reported procedure. The buffer used corresponded to that used in the final protein purification step. Briefly, TAF3PHD and KDM4ATTD: [Tris (50 mM) in water (pH 7.5)]; KDM5APHD3 and BTPFPHD: [Tris (50 mM), NaCl (20 mM) in water (pH 7.5)]; [Tris (25 mM), NaCl (50 mM), 1,4-dithiothreitol (1.0 mM) in water (pH 7.5)]. Experiments were conducted using ITC200 automated (GE Healthcare Life Sciences, USA) instrument at 25 °C. Histone peptide titrations were performed with the same reader batches. Solutions of the reader in buffer (25–40 µM) and of the histone H3 peptide (350–600 µM) in buffer were prepared. The prepared solutions were plated into a 96-well plate and inserted into the instrument for analysis. Experiments were performed according to manufacturer’s default settings: Plate pre-rinse syringe clean. A total of 19 injections were performed; each experiment was repeated 3–5 times. Heats of dilution for histone peptides determined in control experiments were subtracted from the titration binding data. […]

[3] = 25 °C, H3 1-10 peptide, Tris (50 mM), pH 7.5, from 3 to 5 experiments, ± SD

ARTKQTAR(KPme3)STGGKA [H3KP9me3, histone H3 residues 1–15 with trimethylphosphonium lysine analogue at position 9]
demethylation (KDM4DJmjC (M1–L358)): substantial turnover to H3KP9me2

C[C@H](N)C(=O)N[C@@H](CCCNC(=N)N)C(=O)N[C@H](C(=O)N[C@@H](CCCC[P+](C)(C)C)C(=O)N[C@@H](CCC(N)=O)C(=O)N[C@H](C(=O)N[C@@H](C)C(=O)N[C@@H](CCCNC(=N)N)C(=O)N[C@@H](CCCCN)C(=O)N[C@@H](CO)C(N)=O)[C@@H](C)O)[C@@H](C)O [H3KP4me3]
-TΔS° [1]: 1.9 ± 0.1 kcal/mol
ΔG° [1]: -9.1 ± 0.1 kcal/mol
ΔH° [1]: -11.0 ± 0.1 kcal/mol
-TΔS° [2, 3]: 8.8 ± 0.1 kcal/mol
ΔG° [2, 3]: -8.9 ± 0.1 kcal/mol
ΔH° [2, 3]: -17.7 ± 0.1 kcal/mol
fold stronger binding (ΔKd), H3KP4me3 versus H3K4me3 ([2]; KDM4ATTD): ~ 12 fold
ΔΔH°, H3KP4me3 relative to H3K4me3 ([2]; KDM4ATTD): -4.7 kcal/mol
